Source: paper PMC6327983, “Discovery of cyanopyridine scaffold as novel indoleamine-2,3-dioxygenase 1 (IDO1) inhibitors through virtual screening and preliminary hit optimisation” (Journal of Enzyme Inhibition and Medicinal Chemistry, 2019)

How the values were obtained:
IDO1 = target: T1, IDO1 (Homo sapiens, UniProt P14902); assay: Enzyme-based IDO1 activity assay; format: biochemical; settings: for IC50 / Enzymatic assay IC50 (hIDO1): purified human IDO1 enzyme; for IC50: read-out: Enzymatic assay IC50 (hIDO1); for Inhibition ratio (%) @10 μM: 10 μM compound, purified recombinant IDO1
T1 construct: made in house

HeLa = settings: Figure 1, literature value; cited from earlier work
SKOV3 = tested on: SKOV3; set-up: method as in earlier work; settings: Figure 1, literature values; 27 (4), 28 (5); cited from earlier work
HeLa (IDO1) = HeLa (IDO1) (Homo sapiens, UniProt P14902); assay: Cell-based IDO1 activity assay (HeLa kynurenine assay); settings: IFN-γ stimulated HeLa cells; for EC50: 24 h, read-out: Cellular assay EC50 HeLa (IDO1); for Hill slope of the curves (cellular dose response): Figure 9
Protocol: After incubation for 24 h, 140 µL of supernatant was mixed with 10 µL of 6.1 N trichloroacetic acid and the mixture was incubated for 30 min at 60 °C. The reaction mixture was then centrifuged for 20 min at 4000 rpm at 0 °C to remove sediments. About 100 µL of the supernatant was mixed with 100 µL of 2% (w/v) p-DMAB in acetic acid and measured at 480 nm. The final DMSO concentration was 0.5%. The data were analysed using Graphpad Prism 6.
The HeLa-based cellular assay is informative for drug development, as it evaluates not only the IDO1 inhibitory effect of the compounds but also their capacity to permeate the cell, their inhibition of tryptophan and kynurenine transport and their potential cytotoxicity. […] In addition, since the inhibition of tryptophan degradation could simply be an effect of cytotoxicity, thus the determination of cell viability was necessary when reporting cellular IC50 values. In the initial work, all of the screened compounds were determined for their cell viability using the classical MTT assy.

T1 sequence (P14902 whole entry): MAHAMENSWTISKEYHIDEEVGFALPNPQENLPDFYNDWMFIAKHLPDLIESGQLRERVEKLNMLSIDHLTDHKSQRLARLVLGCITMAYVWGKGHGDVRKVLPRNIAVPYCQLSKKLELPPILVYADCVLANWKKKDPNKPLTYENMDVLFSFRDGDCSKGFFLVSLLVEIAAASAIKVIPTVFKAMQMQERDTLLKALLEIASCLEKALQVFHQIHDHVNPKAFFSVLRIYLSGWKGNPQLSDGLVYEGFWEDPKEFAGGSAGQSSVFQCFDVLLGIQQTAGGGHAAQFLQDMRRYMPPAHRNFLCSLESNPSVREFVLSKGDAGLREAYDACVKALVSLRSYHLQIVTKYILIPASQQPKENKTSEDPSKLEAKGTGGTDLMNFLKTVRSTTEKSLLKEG
Sequence of HeLa (IDO1) (P14902 whole entry): as above

2-((3-Cyano-6-(trifluoromethyl)pyridin-2-yl)thio)-N-(p-tolyl)acetamide [LBJ-13]
IC50 (IDO1): 23.6 ± 2.11 µM

4-amino-1,2,5-oxadiazole-3-carboximidamide [Compound 6]
IC50 (HeLa): 1 µM

Cn1cc(C[C@@H](N)C(=O)O)c2ccccc21 [Compound 1, 1-methyl-D-tryptophan]
IC50 (HeLa): 1500 µM

NS(=O)(=O)NCCNc1nonc1C(=NO)Nc1ccc(F)c(Br)c1 [Compound 3]
IC50 (HeLa): 0.0071 µM

O=C1CC(c2c[nH]c3ccc(F)cc23)C(=O)N1 (stereo not shown) [Compound 4]
IC50 (SKOV3): 0.07 µM

C[C@@H](C(=O)Nc1ccc(Cl)cc1)C1CCC(c2ccnc3ccc(F)cc23)CC1 (stereo partly shown) [Compound 5]
IC50 (SKOV3): 0.0034 µM

N#Cc1cccnc1OCC(=O)Nc1ccc(F)cc1 [LBJ-01, 2-((3-Cyanopyridin-2-yl)oxy)-N-(4-fluorophenyl)acetamide]
IC50 (IDO1): 19.5 ± 0.28 µM | melting point: 234 to 236 °C

N#Cc1ccccc1SCC(=O)Nc1ccc(F)cc1 [LBJ-02, 2-((2-Cyanophenyl)thio)-N-(4-fluorophenyl)acetamide]
melting point: 215 to 217 °C

N#Cc1ccncc1SCC(=O)Nc1ccc(F)cc1 [LBJ-04, 2-((4-Cyanopyridin-3-yl)thio)-N-(4-fluorophenyl)acetamide]
IC50 (IDO1): 43.6 ± 0.85 µM | melting point: 206 to 209 °C

N#Cc1cnccc1SCC(=O)Nc1ccc(F)cc1 [LBJ-05, 2-((3-Cyanopyridin-4-yl)thio)-N-(4-fluorophenyl)acetamide]
IC50 (IDO1): 18 ± 0.13 µM | melting point: 232 to 234 °C

N#Cc1ncccc1SCC(=O)Nc1ccc(F)cc1 [LBJ-06, 2-((2-Cyanopyridin-3-yl)thio)-N-(4-fluorophenyl)acetamide]
melting point: 211 to 213 °C

Cc1ccc(C#N)c(SCC(=O)Nc2ccc(F)cc2)n1 [LBJ-07, 2-((3-Cyano-6-methylpyridin-2-yl)thio)-N-(4-fluorophenyl)acetamide]
IC50 (IDO1): 20.6 ± 1.12 µM | melting point: 238 to 240 °C

N#Cc1ccc(C(F)(F)F)nc1SCC(=O)Nc1ccc(F)cc1 [LBJ-08, 2-((3-Cyano-6-(trifluoromethyl)pyridin-2-yl)thio)-N-(4-fluorophenyl)acetamide]
IC50 (IDO1): 1.87 ± 0.83 µM | melting point: 201 to 204 °C

N#Cc1ccc(C(F)(F)F)nc1SCC(=O)Nc1ccccc1F [LBJ-09, 2-((3-Cyano-6-(trifluoromethyl)pyridin-2-yl)thio)-N-(2-fluorophenyl)acetamide]
IC50 (IDO1): 5.81 ± 1.2 µM | melting point: 208 to 211 °C

N#Cc1ccc(C(F)(F)F)nc1SCC(=O)Nc1ccccc1 [LBJ-11, 2-((3-Cyano-6-(trifluoromethyl)pyridin-2-yl)thio)-N-phenylacetamide]
IC50 (IDO1): 9.61 ± 0.71 µM | melting point: 230 to 233 °C

Cc1ccc(NC(=O)CSc2nc(C(F)(F)F)ccc2C#N)cc1 [LBJ-12, 2-((3-Cyano-6-(trifluoromethyl)pyridin-2-yl)thio)-N-(p-tolyl)acetamide]
IC50 (IDO1): 17.9 ± 1.28 µM | melting point: 212 to 214 °C

O=C(CSc1cccc(C(F)(F)F)n1)Nc1ccc(F)c(Cl)c1 [LBJ-14, N-(3-Chloro-4-fluorophenyl)-2-((6-(trifluoromethyl)pyridin-2-yl)thio)acetamide]
IC50 (IDO1): 35.7 ± 1.25 µM | melting point: 86 to 88 °C

Cc1sc2nc(SCC(=O)c3ccc(F)cc3)n(N)c(=O)c2c1C [LVS-001]
IC50 (IDO1): 14.2 ± 1.43 µM

Cn1c(COc2ccccc2)c(C#N)c2ccccc21 [LVS-002]
IC50 (IDO1): 8.08 ± 1.3 µM

O=c1c2c(-c3ccc([N+](=O)[O-])cc3)csc2nc2n1CCC2 [LVS-004]
Inhibition ratio (%) @10 μM (IDO1): 9.65 ± 0.09%

O=C(CSc1nnc2scc(-c3ccc(Cl)cc3)n12)Nc1ccc(F)cc1 [LVS-005]
Inhibition ratio (%) @10 μM (IDO1): 30.73 ± 0.93%

O=C(Nc1ccc2nsnc2c1)c1ccc(F)cc1 [LVS-006]
Inhibition ratio (%) @10 μM (IDO1): 15.83 ± 0.18%

COc1cccc(NC(=O)CSc2nc(N)c(C#N)cc2C#N)c1 [LVS-008]
Inhibition ratio (%) @10 μM (IDO1): 4.31 ± 0.04%

O=S(=O)(c1cccc2cccc(Cl)c12)N1CCCC1 [LVS-013]
Inhibition ratio (%) @10 μM (IDO1): 14.15 ± 0.38%

Cc1ccc(NC(=O)COc2ccccc2CO)cc1 [LVS-014]
Inhibition ratio (%) @10 μM (IDO1): 11.62 ± 1.19%

CCOc1ccc(/C=c2\sc3nnc(-c4ccccc4Cl)n3c2=O)cc1 [LVS-015]
Inhibition ratio (%) @10 μM (IDO1): 11.05 ± 0.02%

O=[N+]([O-])c1ccc(Oc2nsnc2N2CCOCC2)cc1 [LVS-018]
IC50 (IDO1): 18.4 ± 2.31 µM

CC(C)c1ccc(C#N)c(SCC(=O)Nc2ccc(F)cc2)n1 [LVS-019]
EC50 (HeLa (IDO1)): 7.68 ± 0.27 µM | Hill slope of the curves (cellular dose response) (HeLa (IDO1)): 1.11 | IC50 (IDO1): 2.64 ± 0.94 µM

COc1ccccc1-c1cc(C(=O)O)c2ccccc2n1 [LVS-020]
Inhibition ratio (%) @10 μM (IDO1): 0.11 ± 1.98%

O=C(CS(=O)(=O)c1ccccc1)Nc1ccc(Br)cn1 [LVS-022]
Inhibition ratio (%) @10 μM (IDO1): 21.29 ± 0.22%

Cn1c(=O)c(Sc2ccc(Cl)cc2)c(O)c2ccccc21 [LVS-023]
Inhibition ratio (%) @10 μM (IDO1): 10.22 ± 1.11%

O=S(=O)(NC1CCCc2ccccc21)c1ccc(Br)cc1 (stereo not shown) [LVS-027]
Inhibition ratio (%) @10 μM (IDO1): 3.37 ± 0.04%

Cc1ccc(C(=O)CC2(O)C(=O)N(C)c3ccccc32)cc1 (stereo not shown) [LVS-029]
Inhibition ratio (%) @10 μM (IDO1): 9.91 ± 0.65%

O=C(Cn1nnnc1-c1ccccc1)c1ccc(Br)cc1 [LVS-030]
Inhibition ratio (%) @10 μM (IDO1): 2.00 ± 0.28%

Sc1nnc(-c2csc3c2CCCC3)n1Cc1ccccc1 [LVS-032]
IC50 (IDO1): 10.4 ± 1.01 µM

CCN(CC)C(=O)CSc1nc(C)cc(C)c1C#N [LVS-033]
IC50 (IDO1): 36.6 ± 5.46 µM

N#Cc1c(C(F)(F)F)cc(-c2cccs2)nc1SCC(=O)Nc1ccc2ccccc2c1 [LVS-034]
IC50 (IDO1): 66.2 ± 14.3 µM

COCc1cc(C)nc(SCC(=O)Nc2ccc(C)c(C)c2)c1C#N [LVS-035]
IC50 (IDO1): 27.6 ± 6.82 µM

Cc1cc(C)c(C#N)c(SCC(=O)Nc2sc(C)c(C)c2C#N)n1 [LVS-036]
IC50 (IDO1): 78.7 ± 8.46 µM

N#Cc1c(C(F)(F)F)cc(-c2cccs2)nc1SCC(=O)Nc1ccc(F)cc1 [LVS-037]
IC50 (IDO1): 54.7 ± 4.7 µM

Cc1cc(C)c(C#N)c(SCC(=O)Nc2cccc(C)c2C)n1 [LVS-038]
Enzymatic assay IC50 (hIDO1) (IDO1): Not Converged

Cc1cc(C)c(C#N)c(SCC(=O)Nc2ccc(Cl)c(Cl)c2)n1 [LVS-039]
EC50 (HeLa (IDO1)): 3.42 ± 0.56 µM | Hill slope of the curves (cellular dose response) (HeLa (IDO1)): 0.69 | IC50 (IDO1): 2.57 ± 0.42 µM

COc1ccc(-c2ccc(C#N)c(SCC(=O)Nc3ccccc3Br)n2)cc1 [LVS-040]
IC50 (IDO1): 74.7 ± 15.2 µM

COc1cccc(-c2ccc(C#N)c(SCC(=O)Nc3cccc(C)c3)n2)c1 [LVS-041]
IC50 (IDO1): 55.1 ± 10.1 µM

COc1cccc(-c2ccc(C#N)c(SCC(=O)Nc3ccccc3Cl)n2)c1 [LVS-042]
IC50 (IDO1): 38.5 ± 6.09 µM

N#Cc1cc2c(nc1SCC(=O)Nc1nccs1)CCCCC2 [LVS-043]
IC50 (IDO1): 21.7 ± 3.18 µM

N#Cc1cc2c(nc1SCC(=O)Nc1ccc(F)cc1)CCCC2 [LVS-044]
IC50 (IDO1): 49.3 ± 10 µM

Cc1cc(C)c(C#N)c(SCC(=O)Nc2sc3c(c2C#N)CCC3)n1 [LVS-045]
IC50 (IDO1): 26 ± 9.64 µM

Cc1nc(SCC(=O)Nc2sc3c(c2C#N)CCC3)c(C#N)c(C)c1C [LVS-046]
Enzymatic assay IC50 (hIDO1) (IDO1): Not Converged

CCc1nc(SCC(=O)Nc2sc3c(c2C#N)CCC3)c(C#N)cc1C [LVS-047]
IC50 (IDO1): 21.2 ± 7.1 µM

Cc1cc(C(F)(F)F)nc(SCC(=O)Nc2sc3c(c2C#N)CCC3)c1C#N [LVS-048]
EC50 (HeLa (IDO1)): 9.4 ± 0.07 µM | Hill slope of the curves (cellular dose response) (HeLa (IDO1)): 0.70 | IC50 (IDO1): 8.76 ± 1.74 µM

N#Cc1cc2c(nc1SCC(=O)Nc1sc3c(c1C#N)CCCC3)CCCCCC2 [LVS-049]
IC50 (IDO1): 14.8 ± 3.14 µM

CN1CCc2nc(SCC(=O)Nc3sc4c(c3C#N)CCCC4)c(C#N)cc2C1 [LVS-050]
Enzymatic assay IC50 (hIDO1) (IDO1): Not Converged

COc1cc2c(cc1OC)CN(C(=O)CSc1nc(C)cc(C)c1C#N)CC2 [LVS-051]
Enzymatic assay IC50 (hIDO1) (IDO1): Not Converged

Cc1cc(C(F)(F)F)c(C#N)c(SCC(=O)Nc2ncc(Br)cc2Br)n1 [LVS-052]
IC50 (IDO1): 1.38 ± 0.57 µM

N#Cc1cc2c(nc1SCC(=O)Nc1cc(Cl)cc(Cl)c1)C1CCN2CC1 [LVS-053]
Enzymatic assay IC50 (hIDO1) (IDO1): Not Converged

CN1CCc2nc(SCC(=O)Nc3ccccc3)c(C#N)cc2C1 [LVS-054]
Enzymatic assay IC50 (hIDO1) (IDO1): Not Converged

Cc1cc(C)c(C#N)c(SCC(=O)Nc2nccs2)n1 [LVS-055]
Enzymatic assay IC50 (hIDO1) (IDO1): Not Converged
